Assay results published in ChEMBL document CHEMBL5465560, “Selectivity Literature for EUbOPEN Chemogenomic Library” (2024).
Each block holds one compound with its values, some of them ahead of it.

Key:
[1] = test system: Epidermal growth factor receptor (Homo sapiens), P00533 [UNDEFINED MUTATION]; assay: Selectivity interaction (Ambit KINOMEscan and KiNATiv profiling in Jurkat cells) EUB0000090b EGFR; type: cell-based; conditions: at 1 µM
[2] = molecular target: T1, Cyclin-G-associated kinase (Homo sapiens) (UniProt O14976); assay: Selectivity interaction (Kinase panel (DSF assay)) EUB0001559a GAK
T1 sequence (whole entry): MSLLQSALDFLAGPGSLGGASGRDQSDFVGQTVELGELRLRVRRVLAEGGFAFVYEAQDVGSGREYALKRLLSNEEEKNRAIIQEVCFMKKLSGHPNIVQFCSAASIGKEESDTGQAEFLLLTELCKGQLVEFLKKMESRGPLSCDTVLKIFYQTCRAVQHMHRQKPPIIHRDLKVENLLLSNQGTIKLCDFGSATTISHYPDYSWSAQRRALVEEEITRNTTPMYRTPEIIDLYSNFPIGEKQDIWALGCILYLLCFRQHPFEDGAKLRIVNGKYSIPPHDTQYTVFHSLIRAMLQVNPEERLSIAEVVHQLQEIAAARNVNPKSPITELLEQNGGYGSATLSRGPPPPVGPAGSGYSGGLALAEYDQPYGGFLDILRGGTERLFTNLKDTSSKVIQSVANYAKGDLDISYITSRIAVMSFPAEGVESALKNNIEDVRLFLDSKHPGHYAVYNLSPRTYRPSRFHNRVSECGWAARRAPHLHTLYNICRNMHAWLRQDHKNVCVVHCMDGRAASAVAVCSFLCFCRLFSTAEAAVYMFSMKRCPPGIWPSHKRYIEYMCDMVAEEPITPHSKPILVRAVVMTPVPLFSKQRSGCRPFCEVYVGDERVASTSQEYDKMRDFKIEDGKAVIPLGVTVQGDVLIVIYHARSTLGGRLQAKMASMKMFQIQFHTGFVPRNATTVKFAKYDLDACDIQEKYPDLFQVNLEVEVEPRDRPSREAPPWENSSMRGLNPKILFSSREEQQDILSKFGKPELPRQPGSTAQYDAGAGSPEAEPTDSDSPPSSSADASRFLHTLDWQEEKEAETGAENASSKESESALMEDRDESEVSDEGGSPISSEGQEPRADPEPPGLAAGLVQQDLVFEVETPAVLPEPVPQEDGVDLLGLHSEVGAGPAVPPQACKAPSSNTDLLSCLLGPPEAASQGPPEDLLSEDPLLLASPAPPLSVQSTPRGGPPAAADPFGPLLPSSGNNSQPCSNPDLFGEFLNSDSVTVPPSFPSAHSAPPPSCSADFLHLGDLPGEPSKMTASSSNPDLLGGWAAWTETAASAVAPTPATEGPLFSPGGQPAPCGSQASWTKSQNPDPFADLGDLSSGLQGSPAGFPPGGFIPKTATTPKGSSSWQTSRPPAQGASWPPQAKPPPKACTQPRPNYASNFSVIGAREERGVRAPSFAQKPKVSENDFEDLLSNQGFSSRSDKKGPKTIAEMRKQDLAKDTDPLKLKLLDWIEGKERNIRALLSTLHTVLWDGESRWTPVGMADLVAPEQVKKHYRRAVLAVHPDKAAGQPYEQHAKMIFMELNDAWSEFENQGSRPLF

[3] = molecular target: Phosphatidylinositol 4,5-bisphosphate 3-kinase catalytic subunit alpha isoform (Homo sapiens) (UniProt P42336); assay: (§1) Selectivity interaction (KinomeScan (DiscoverX)) EUB0000655a PIK3CA; conditions: at 10 µM
Phosphatidylinositol 4,5-bisphosphate 3-kinase catalytic subunit alpha isoform (Homo sapiens), sequence (P42336 whole entry, canonical isoform): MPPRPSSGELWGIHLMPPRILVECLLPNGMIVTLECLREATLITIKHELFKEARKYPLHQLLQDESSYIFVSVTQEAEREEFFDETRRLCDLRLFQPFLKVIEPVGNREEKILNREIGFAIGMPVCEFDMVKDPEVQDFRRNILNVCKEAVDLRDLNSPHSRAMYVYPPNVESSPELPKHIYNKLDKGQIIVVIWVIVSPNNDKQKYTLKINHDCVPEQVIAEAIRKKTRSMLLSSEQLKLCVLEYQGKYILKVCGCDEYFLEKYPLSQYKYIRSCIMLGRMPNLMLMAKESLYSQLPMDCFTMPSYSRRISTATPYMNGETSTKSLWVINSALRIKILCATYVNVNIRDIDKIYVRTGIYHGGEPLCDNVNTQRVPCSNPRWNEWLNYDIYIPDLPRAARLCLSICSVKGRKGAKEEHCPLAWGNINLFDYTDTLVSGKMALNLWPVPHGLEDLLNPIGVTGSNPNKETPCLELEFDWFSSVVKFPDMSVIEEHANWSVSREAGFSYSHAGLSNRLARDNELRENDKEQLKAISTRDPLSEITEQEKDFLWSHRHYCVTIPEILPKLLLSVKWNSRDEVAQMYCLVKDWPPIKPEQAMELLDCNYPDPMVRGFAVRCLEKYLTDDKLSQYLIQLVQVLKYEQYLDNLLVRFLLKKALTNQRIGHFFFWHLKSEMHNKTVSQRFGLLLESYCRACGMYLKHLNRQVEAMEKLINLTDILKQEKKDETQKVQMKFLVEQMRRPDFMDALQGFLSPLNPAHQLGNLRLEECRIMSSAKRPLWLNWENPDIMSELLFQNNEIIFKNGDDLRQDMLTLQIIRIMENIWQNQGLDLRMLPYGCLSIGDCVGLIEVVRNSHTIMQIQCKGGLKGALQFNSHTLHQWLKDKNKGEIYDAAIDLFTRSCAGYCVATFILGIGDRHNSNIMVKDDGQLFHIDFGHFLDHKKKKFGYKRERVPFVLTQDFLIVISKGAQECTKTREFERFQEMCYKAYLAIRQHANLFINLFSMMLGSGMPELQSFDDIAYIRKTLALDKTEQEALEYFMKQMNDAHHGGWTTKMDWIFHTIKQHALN

[4] = test system: Phosphatidylinositol 4,5-bisphosphate 3-kinase catalytic subunit alpha isoform (Homo sapiens), P42336 [C420R]; assay: as §1; conditions: at 10 µM
[5] = test system: Phosphatidylinositol 4,5-bisphosphate 3-kinase catalytic subunit alpha isoform (Homo sapiens), P42336 [E542K]; assay: as §1; conditions: at 10 µM
Phosphatidylinositol 4,5-bisphosphate 3-kinase catalytic subunit alpha isoform (Homo sapiens), P42336 [E542K], sequence (P42336 whole entry E542K, canonical isoform): as the sequence (P42336 whole entry, canonical isoform) above, with E542K counted along it

[6] = test system: Phosphatidylinositol 4,5-bisphosphate 3-kinase catalytic subunit alpha isoform (Homo sapiens), P42336 [E545A]; assay: as §1; conditions: at 10 µM
[7] = test system: Phosphatidylinositol 4,5-bisphosphate 3-kinase catalytic subunit alpha isoform (Homo sapiens), P42336 [E545K]; assay: as §1; conditions: at 10 µM
[8] = test system: Phosphatidylinositol 4,5-bisphosphate 3-kinase catalytic subunit alpha isoform (Homo sapiens), P42336 [H1047L]; assay: as §1; conditions: at 10 µM
[9] = test system: Phosphatidylinositol 4,5-bisphosphate 3-kinase catalytic subunit alpha isoform (Homo sapiens), P42336 [H1047Y]; assay: as §1; conditions: at 10 µM
[10] = test system: Phosphatidylinositol 4,5-bisphosphate 3-kinase catalytic subunit alpha isoform (Homo sapiens), P42336 [I800L]; assay: as §1; conditions: at 10 µM
[11] = test system: Phosphatidylinositol 4,5-bisphosphate 3-kinase catalytic subunit alpha isoform (Homo sapiens), P42336 [M1043I]; assay: as §1; conditions: at 10 µM
[12] = test system: Phosphatidylinositol 4,5-bisphosphate 3-kinase catalytic subunit alpha isoform (Homo sapiens), P42336 [Q546K]; assay: as §1; conditions: at 10 µM
[13] = molecular target: T2, Serine/threonine-protein kinase Nek3 (Homo sapiens) (UniProt P51956); assay: Selectivity interaction (KinomeScan (DiscoverX)) EUB0001079a NEK3; conditions: at 1 µM
T2 sequence (whole entry): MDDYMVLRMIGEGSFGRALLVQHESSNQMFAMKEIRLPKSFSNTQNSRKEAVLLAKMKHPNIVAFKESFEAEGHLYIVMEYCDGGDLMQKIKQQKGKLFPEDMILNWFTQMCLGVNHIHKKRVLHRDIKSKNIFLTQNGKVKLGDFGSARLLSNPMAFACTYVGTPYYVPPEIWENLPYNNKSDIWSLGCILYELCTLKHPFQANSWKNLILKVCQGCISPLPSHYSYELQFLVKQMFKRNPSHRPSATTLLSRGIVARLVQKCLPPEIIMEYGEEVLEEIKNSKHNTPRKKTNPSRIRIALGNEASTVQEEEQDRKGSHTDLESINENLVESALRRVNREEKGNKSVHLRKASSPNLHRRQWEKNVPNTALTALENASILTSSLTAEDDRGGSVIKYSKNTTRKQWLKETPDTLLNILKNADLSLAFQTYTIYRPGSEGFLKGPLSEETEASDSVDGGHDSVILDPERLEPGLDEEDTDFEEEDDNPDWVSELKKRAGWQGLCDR

[14] = molecular target: 1-phosphatidylinositol 3-phosphate 5-kinase (Homo sapiens) (UniProt Q9Y2I7); assay: Selectivity interaction (KinomeScan (DiscoverX)) EUB0001079a PIKFYVE; conditions: at 1 µM
[15] = molecular target: Tyrosine-protein kinase ABL2 (Homo sapiens, UniProt P42684); assay: Selectivity interaction (Kinase panel (Invitrogen)) EUB0000639a ABL2; conditions: at 200 nM
[16] = molecular target: Maternal embryonic leucine zipper kinase (Homo sapiens) (UniProt Q14680); assay: Selectivity interaction (KinomeScan (DiscoverX)) EUB0000229b MELK; conditions: at 10 µM
Maternal embryonic leucine zipper kinase (Homo sapiens), sequence (Q14680 whole entry, looked up): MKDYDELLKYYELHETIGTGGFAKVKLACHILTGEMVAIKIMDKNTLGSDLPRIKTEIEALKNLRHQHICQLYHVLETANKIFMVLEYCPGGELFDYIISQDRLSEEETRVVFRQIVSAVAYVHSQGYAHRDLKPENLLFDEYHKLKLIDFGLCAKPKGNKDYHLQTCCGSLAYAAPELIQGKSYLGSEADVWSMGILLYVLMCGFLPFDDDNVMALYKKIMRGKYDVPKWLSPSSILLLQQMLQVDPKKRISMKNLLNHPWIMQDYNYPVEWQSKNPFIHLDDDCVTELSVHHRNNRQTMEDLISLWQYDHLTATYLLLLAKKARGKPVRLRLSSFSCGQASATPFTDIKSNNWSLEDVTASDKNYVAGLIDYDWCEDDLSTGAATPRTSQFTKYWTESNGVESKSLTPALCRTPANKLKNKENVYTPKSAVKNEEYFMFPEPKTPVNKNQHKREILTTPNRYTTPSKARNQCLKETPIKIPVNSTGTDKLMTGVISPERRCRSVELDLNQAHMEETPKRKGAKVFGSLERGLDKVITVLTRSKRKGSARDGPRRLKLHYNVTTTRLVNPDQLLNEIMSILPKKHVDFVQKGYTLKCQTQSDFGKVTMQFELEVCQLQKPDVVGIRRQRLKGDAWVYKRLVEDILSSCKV

[17] = molecular target: Serine/threonine-protein kinase MRCK beta (Homo sapiens) (UniProt Q9Y5S2); assay: Selectivity interaction (ProQinase) EUB0000171b CDC42BPB
Serine/threonine-protein kinase MRCK beta (Homo sapiens), sequence (Q9Y5S2 whole entry): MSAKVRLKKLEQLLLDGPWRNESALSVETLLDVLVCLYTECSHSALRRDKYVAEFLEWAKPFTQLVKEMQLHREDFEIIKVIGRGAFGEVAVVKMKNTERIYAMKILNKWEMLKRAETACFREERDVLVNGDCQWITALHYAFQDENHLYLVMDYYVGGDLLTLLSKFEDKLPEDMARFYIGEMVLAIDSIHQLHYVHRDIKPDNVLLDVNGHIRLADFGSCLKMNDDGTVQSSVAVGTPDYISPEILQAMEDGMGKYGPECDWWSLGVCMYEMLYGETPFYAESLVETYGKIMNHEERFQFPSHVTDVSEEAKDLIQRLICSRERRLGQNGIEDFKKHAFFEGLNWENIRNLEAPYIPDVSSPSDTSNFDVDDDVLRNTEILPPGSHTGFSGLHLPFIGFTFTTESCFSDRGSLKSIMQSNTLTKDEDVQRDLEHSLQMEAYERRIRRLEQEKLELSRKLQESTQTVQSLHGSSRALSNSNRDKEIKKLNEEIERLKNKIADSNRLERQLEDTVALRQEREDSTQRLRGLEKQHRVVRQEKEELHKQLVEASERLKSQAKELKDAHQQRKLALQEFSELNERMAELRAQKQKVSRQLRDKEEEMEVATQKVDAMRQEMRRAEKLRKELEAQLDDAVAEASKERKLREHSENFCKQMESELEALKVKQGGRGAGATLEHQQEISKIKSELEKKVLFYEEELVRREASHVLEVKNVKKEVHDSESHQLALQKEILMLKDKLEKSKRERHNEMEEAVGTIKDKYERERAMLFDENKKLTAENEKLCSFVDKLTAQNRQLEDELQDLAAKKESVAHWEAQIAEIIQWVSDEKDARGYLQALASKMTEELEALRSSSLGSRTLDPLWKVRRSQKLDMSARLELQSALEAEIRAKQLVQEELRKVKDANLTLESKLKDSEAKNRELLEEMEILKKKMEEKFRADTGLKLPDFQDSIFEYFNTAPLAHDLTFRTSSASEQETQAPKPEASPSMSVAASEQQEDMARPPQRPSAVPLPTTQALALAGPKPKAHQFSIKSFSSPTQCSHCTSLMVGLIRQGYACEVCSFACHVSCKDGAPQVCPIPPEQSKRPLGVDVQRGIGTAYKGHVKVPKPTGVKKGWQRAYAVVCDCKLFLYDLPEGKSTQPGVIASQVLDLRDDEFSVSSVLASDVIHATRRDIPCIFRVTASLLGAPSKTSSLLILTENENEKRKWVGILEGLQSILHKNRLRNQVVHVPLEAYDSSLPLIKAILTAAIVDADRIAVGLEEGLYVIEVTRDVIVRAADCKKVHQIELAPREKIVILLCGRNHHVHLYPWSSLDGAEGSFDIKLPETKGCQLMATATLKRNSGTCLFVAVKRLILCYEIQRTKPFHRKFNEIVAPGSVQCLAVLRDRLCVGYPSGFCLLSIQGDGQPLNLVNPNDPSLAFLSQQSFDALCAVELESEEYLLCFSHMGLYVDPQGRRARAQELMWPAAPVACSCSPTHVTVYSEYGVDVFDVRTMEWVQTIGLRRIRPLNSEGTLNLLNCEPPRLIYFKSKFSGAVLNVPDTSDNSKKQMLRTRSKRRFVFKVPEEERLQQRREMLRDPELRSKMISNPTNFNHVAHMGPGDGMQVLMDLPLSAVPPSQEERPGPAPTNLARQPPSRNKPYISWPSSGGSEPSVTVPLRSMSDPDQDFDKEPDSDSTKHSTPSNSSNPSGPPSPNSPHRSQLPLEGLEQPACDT

[18] = molecular target: Mitogen-activated protein kinase 3 (Homo sapiens, UniProt P27361); assay: Selectivity interaction (ProQinase) EUB0000171b MAPK3
Mitogen-activated protein kinase 3, sequence (P27361 whole entry): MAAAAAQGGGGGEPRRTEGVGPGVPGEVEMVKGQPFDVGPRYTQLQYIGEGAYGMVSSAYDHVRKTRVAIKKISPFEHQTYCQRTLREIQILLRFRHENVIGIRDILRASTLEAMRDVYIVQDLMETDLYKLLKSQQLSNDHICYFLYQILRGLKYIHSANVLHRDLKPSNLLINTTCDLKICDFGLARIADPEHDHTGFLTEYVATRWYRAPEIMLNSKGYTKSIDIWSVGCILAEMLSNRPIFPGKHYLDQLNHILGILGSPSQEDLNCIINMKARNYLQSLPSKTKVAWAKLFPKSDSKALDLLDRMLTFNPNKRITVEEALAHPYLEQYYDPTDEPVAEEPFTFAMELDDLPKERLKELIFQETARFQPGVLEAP

[19] = molecular target: Ribosomal protein S6 kinase alpha-1 (Homo sapiens, UniProt Q15418); assay: Selectivity interaction (KinomeScan (DiscoverX)) EUB0000092b RPS6KA1; conditions: at 10 µM

SMILES: CN(C)C/C=C/C(=O)Nc1ccc(C(=O)N2CCCC(Nc3ncc(Cl)c(-c4c[nH]c5ccccc45)n3)C2)cc1 (stereo unspecified)
- % of control [1]: 77%

- dTM [2]: 0.1 K
SMILES: CN(C(=O)c1cnn2cccnc12)c1cc2c(cc1N1CCOCC1)C(=O)N(C[C@@H](F)C(C)(C)O)C2

SMILES: CN(C)CCOc1ccc(-c2nc(-c3ccncc3)c(-c3ccc4c(c3)CC/C4=N\O)[nH]2)cc1
- % of control [3]: 85%
- % of control [4]: 100%
- % of control [5]: 93%
- % of control [6]: 83%
- % of control [7]: 100%
- % of control [8]: 98%
- % of control [9]: 88%
- % of control [10]: 81%
- % of control [11]: 84%
- % of control [12]: 81%

SMILES: Nc1cnc(N2CCc3cc(S(=O)(=O)Nc4c(F)cc(Cl)cc4F)cc(N4CCCC4=O)c32)nc1 [TP-020n]
- % of control [13]: 100%
- % of control [14]: 100%

- % of inhibition [15]: -0.467%
SMILES: CC[C@@H]1[C@H](F)C(=O)N[C@@H]1COc1nccc2cc(C(N)=O)c(OC)cc12 [ZIMLOVISERTIB]

SMILES: COc1cc(N(C)c2ccnc3ccc(C(F)(F)F)cc23)cc(OC)c1OC
- % binding [16]: 91%

- % of control ([17]; at 1 µM): 89%
- % of control ([17]; at 5 µM): 82%
- % of control ([18]; at 1 µM): 101%
- % of control ([18]; at 5 µM): 99%
SMILES: C=CC(=O)Nc1cccc(C(=O)Nc2ccc(Nc3cc(-c4[nH]c(SC)nc4C)ccn3)cc2)c1

SMILES: CCC(=O)N1CCN(c2ccc(-n3c(=O)ccc4cnc5ccc(-c6cnc7ccccc7c6)cc5c43)cc2C(F)(F)F)CC1
- % of control [19]: 68%
